Experimental data reported in ChEMBL document CHEMBL4680122, “Design, synthesis and biological evaluation of new Axl kinase inhibitors containing 1,3,4-oxadiazole acetamide moiety as novel linker” (Eur J Med Chem, 2020).
The source made the active and inactive calls. The calls are words filed in the database; no cut-off is given here.

Experiments:
MCF7 = test: Antiproliferative activity against human MCF7 cells measured after 72 hrs by MTT assay; assay type: functional, cell-based; details: MCF7, 72 h
PC-3 [1] = test: Potency index, ratio of foretinib IC50 to test compound IC50 for antiproliferative activity against human PC-3 cells; assay type: functional
MDA-MB-231 = test: Antiproliferative activity against human MDA-MB-231 cells measured after 72 hrs by MTT assay; assay type: functional, cell-based
PC-3 [2] = test: cells; details: Homo sapiens, PC-3, 72 h
Description: Antiproliferative activity against human PC-3 cells measured after 72 hrs by MTT assay

[3] = target: Macrophage-stimulating protein receptor (Homo sapiens) (UniProt Q04912); test: Inhibition of Ron (unknown origin) at 200 nM relative to control
Chain of Macrophage-stimulating protein receptor (Homo sapiens) (Q04912 25-304 limits assumed): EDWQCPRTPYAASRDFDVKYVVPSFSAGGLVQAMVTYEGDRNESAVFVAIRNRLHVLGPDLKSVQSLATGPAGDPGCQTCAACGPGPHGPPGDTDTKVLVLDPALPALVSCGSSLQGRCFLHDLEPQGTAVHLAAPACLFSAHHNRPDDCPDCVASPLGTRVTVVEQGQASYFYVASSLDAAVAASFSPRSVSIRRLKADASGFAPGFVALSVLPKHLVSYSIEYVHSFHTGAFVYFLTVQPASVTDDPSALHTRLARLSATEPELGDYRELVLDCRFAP
Chain of Macrophage-stimulating protein receptor (Homo sapiens) (Q04912 310-1400 limits assumed): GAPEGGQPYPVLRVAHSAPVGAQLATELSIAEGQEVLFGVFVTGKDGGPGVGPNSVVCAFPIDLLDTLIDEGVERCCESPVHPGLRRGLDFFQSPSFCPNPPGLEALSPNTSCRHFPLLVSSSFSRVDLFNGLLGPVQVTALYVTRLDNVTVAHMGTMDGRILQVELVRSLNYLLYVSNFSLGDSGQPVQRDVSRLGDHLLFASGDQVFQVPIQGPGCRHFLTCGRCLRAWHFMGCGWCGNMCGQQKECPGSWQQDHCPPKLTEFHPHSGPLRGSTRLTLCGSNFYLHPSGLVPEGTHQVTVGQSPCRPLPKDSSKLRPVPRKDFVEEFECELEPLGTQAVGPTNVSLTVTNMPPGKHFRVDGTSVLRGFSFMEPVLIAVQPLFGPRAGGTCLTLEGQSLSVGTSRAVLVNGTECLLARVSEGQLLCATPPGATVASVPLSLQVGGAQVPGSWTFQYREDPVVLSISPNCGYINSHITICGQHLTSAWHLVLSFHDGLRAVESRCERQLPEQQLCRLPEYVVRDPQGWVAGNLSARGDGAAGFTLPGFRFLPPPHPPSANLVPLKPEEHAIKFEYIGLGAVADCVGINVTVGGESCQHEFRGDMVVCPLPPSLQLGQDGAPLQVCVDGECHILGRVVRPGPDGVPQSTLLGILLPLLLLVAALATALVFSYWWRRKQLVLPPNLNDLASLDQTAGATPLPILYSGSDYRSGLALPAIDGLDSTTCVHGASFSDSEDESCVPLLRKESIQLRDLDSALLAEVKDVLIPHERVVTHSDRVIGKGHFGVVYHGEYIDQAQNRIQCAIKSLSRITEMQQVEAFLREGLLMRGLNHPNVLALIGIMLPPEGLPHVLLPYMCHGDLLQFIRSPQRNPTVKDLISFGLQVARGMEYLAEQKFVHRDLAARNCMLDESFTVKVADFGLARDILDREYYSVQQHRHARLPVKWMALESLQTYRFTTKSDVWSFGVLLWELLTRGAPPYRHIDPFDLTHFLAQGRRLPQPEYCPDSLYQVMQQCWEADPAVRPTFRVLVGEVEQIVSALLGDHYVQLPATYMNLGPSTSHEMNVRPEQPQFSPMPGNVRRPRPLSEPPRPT

[4] = target: T1, Tyrosine-protein kinase Mer (Homo sapiens, UniProt Q12866); test: Inhibition of MER (unknown origin)
T1 sequence (Q12866 whole entry): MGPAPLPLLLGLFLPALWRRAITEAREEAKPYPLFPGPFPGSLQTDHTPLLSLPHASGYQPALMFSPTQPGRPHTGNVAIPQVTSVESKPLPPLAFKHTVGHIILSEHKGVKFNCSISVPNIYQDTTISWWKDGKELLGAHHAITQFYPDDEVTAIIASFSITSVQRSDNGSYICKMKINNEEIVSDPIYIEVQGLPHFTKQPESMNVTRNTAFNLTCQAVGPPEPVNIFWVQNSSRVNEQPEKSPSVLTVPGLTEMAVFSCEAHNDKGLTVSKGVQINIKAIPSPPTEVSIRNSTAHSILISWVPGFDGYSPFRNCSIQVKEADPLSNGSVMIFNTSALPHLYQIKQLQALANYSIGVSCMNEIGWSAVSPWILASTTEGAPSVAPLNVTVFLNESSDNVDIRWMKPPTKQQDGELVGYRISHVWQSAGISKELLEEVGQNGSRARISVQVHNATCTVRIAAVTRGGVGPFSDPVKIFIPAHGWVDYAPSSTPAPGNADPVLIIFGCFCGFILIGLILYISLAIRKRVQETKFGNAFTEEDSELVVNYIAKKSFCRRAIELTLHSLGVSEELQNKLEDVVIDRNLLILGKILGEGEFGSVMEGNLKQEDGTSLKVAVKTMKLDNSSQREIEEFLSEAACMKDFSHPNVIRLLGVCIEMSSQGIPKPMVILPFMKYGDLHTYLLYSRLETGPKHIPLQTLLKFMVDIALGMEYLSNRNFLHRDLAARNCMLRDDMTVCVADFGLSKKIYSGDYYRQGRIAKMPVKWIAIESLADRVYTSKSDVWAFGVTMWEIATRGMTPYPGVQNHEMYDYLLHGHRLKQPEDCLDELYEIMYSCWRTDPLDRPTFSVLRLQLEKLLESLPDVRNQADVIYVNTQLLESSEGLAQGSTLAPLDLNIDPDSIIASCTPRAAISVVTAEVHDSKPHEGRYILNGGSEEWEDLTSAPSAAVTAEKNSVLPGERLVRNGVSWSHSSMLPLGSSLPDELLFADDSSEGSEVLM

[5] = target: Platelet-derived growth factor receptor beta (Homo sapiens, UniProt P09619); test: Inhibition of human His-tagged PDGFRB cytoplasmic domain expressed in baculovirus expression system using peptide substrate measured after 1 hr by mobility shift assay
Chain of Platelet-derived growth factor receptor beta (P09619 whole entry, the tested form may be a part): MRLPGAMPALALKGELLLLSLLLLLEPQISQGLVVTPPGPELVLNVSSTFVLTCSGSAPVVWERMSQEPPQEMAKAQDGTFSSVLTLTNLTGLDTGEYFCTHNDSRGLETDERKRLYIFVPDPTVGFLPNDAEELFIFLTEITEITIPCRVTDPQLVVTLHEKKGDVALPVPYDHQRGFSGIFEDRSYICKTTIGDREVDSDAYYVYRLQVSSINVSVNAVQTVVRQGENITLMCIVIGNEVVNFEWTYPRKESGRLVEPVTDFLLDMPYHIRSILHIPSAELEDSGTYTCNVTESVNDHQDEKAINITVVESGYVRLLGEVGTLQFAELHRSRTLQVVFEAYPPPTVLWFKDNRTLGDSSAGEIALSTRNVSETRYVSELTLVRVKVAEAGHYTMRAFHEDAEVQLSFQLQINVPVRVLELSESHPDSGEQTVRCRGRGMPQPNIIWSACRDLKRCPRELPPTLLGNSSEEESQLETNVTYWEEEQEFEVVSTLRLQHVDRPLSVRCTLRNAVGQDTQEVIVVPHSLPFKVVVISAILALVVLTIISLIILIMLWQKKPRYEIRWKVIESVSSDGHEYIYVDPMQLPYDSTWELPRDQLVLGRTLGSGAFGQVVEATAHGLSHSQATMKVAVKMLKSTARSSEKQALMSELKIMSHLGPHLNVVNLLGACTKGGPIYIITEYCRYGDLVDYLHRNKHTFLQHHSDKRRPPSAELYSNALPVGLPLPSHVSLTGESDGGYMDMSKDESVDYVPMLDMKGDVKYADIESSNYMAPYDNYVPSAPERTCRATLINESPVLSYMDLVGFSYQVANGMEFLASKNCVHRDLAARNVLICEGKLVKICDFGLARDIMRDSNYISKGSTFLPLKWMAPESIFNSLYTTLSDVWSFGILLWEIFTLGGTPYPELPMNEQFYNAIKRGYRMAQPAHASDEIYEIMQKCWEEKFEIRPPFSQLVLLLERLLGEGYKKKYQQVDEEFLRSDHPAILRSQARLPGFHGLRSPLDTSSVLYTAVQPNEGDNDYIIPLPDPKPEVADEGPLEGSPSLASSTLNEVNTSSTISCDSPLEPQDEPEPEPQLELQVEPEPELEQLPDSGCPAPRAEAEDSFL

H1975/Gefitinib = test: cells; details: Homo sapiens, 72 h
[6] = target: T2, Tyrosine-protein kinase receptor TYRO3 (Homo sapiens, UniProt Q06418); test: Inhibition of Tyro3 (unknown origin)
T2 sequence (Q06418 whole entry): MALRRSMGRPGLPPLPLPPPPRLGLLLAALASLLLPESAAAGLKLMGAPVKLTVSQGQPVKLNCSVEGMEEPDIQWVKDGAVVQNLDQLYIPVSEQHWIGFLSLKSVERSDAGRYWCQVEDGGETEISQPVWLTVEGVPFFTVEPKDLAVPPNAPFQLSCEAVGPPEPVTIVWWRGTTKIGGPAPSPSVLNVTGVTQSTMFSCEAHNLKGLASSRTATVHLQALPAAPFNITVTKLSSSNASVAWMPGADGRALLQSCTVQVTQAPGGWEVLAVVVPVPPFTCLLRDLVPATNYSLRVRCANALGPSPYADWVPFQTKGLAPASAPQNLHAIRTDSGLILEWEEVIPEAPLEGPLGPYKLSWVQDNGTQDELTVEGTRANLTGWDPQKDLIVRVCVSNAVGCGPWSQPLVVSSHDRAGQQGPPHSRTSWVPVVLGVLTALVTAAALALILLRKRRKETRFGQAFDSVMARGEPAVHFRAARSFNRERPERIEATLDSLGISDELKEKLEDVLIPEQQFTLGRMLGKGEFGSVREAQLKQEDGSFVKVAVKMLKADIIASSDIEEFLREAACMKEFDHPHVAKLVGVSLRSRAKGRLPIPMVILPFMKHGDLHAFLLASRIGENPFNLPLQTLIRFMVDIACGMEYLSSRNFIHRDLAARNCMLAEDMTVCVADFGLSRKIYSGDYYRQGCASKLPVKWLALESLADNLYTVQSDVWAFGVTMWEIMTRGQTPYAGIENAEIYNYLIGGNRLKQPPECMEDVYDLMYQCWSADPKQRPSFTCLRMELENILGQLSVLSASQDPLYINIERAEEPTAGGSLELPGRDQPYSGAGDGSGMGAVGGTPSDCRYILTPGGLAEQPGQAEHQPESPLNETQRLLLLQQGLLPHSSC

IC50 (MCF7): 1010 nM
IC50 (PC-3 [2]): 590 nM
inhibition [3]: > 80%
IC50 [4]: > 200 nM
IC50 [5]: > 200 nM
IC50 (H1975/Gefitinib): 107 nM
IC50 [6]: > 200 nM
SMILES: COc1cc2c(Oc3ccc(NC(=O)C4(c5nnc(-c6ccc(F)cc6)o5)CC4)cc3F)ccnc2cc1OCCCN1CCCCC1
Ratio IC50 (PC-3 [1]): 1.54
Activity (MDA-MB-231): Active
